How the values were obtained:
Assay type in all cases: cell-based
Toll-like receptor 9 = biological target: T1, Toll-like receptor 9 (Homo sapiens, UniProt Q9NR96); assay: Antagonist activity at human TLR9 overexpressed in HEK-Blue cells assessed as inhibition of ODN2006-induced NFkappaB and AP-1 activation preincubated for 30 mins followed by ODN2006 stimulation measured after 22 hrs by quanti-blue SEAP assay
T1 sequence (Q9NR96 whole entry): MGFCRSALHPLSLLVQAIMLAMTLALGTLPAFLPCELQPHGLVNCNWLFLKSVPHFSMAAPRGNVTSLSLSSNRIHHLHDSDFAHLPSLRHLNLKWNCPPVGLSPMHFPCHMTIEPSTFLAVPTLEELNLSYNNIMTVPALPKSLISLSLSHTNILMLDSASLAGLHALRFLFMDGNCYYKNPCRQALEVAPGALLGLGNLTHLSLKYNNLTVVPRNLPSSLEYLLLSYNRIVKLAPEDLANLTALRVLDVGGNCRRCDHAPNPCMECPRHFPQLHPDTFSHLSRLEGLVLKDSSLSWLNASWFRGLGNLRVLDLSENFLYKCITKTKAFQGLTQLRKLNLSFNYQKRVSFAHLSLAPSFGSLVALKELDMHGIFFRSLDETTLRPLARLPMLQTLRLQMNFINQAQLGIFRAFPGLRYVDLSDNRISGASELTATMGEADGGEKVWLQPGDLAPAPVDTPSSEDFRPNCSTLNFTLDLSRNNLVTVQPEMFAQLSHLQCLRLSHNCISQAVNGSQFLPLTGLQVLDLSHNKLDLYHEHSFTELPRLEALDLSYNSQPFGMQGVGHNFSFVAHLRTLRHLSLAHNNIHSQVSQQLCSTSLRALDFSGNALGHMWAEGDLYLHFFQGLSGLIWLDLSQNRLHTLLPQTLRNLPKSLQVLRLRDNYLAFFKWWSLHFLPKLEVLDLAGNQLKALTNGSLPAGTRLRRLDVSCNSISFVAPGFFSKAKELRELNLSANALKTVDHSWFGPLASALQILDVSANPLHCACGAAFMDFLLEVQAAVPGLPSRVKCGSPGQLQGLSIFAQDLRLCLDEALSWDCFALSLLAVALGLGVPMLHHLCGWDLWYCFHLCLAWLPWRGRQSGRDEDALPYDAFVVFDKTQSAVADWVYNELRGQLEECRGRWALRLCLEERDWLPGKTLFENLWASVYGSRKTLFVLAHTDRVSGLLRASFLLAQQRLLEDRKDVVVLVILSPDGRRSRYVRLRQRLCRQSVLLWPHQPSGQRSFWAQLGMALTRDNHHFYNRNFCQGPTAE

Toll-like receptor 7 = biological target: T2, Toll-like receptor 7 (Homo sapiens, UniProt Q9NYK1); assay: Antagonist activity at human TLR7 overexpressed in HEK-Blue cells assessed as inhibition of gardiquimod-induced NFkappaB and AP-1 activation preincubated for 30 mins followed by gardiquimod stimulation measured after 22 hrs by quanti-blue SEAP assay
T2 sequence (Q9NYK1 whole entry): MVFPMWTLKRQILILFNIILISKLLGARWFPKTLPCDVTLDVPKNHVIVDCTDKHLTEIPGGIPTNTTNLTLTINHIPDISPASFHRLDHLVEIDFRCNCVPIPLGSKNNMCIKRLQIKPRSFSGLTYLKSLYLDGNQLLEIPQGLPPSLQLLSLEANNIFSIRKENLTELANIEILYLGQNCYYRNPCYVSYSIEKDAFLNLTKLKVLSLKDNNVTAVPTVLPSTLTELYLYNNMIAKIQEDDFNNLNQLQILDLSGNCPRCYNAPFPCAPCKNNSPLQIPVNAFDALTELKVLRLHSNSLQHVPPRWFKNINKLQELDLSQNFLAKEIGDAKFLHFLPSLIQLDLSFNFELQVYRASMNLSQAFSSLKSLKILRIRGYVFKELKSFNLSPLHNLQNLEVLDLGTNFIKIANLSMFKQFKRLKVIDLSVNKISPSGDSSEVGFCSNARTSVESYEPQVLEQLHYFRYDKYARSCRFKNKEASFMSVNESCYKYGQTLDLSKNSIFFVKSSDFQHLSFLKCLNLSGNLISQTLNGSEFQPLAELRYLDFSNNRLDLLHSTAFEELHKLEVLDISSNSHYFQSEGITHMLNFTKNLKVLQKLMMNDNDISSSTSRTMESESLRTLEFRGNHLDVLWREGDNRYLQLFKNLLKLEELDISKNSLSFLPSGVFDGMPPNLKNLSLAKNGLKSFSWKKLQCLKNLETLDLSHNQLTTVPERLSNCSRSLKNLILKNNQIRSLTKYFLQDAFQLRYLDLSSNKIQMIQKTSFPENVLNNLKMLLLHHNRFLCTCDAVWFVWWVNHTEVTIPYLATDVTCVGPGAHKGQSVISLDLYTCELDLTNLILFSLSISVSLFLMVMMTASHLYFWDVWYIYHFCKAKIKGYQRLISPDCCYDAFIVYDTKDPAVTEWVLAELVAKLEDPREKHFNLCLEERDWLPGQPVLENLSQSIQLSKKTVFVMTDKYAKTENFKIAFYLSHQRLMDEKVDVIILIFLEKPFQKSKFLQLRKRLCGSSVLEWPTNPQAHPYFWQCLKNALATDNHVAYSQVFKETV

[1] = biological target: T3, Toll-like receptor 9 (Homo sapiens) (UniProt Q9NR96); assay: Antagonist activity at human TLR9 overexpressed in HEK-Blue cells assessed as inhibition of ODN2006-induced NFkappaB and AP-1 activation at 10 uM preincubated for 30 mins followed by ODN2006 stimulation measured after 22 hrs by quanti-blue SEAP assay relative to control
T3 sequence (whole entry): T1 sequence (Q9NR96 whole entry)

Toll-like receptor 4 = Toll-like receptor 4 (Homo sapiens, UniProt O00206); assay: Antagonist activity at human TLR4 overexpressed in HEK-Blue cells assessed as inhibition of […] induced NFkappaB and AP-1 activation preincubated for 30 mins followed by […] stimulation measured after 22 hrs by quanti-blue SEAP assay
Toll-like receptor 3 = biological target: T4, Toll-like receptor 3 (Homo sapiens, UniProt O15455); assay: Antagonist activity at human TLR3 overexpressed in HEK-Blue cells assessed as inhibition of Poly IC-induced NFkappaB and AP-1 activation preincubated for 30 mins followed by Poly IC stimulation measured after 22 hrs by quanti-blue SEAP assay
T4 sequence (O15455 whole entry): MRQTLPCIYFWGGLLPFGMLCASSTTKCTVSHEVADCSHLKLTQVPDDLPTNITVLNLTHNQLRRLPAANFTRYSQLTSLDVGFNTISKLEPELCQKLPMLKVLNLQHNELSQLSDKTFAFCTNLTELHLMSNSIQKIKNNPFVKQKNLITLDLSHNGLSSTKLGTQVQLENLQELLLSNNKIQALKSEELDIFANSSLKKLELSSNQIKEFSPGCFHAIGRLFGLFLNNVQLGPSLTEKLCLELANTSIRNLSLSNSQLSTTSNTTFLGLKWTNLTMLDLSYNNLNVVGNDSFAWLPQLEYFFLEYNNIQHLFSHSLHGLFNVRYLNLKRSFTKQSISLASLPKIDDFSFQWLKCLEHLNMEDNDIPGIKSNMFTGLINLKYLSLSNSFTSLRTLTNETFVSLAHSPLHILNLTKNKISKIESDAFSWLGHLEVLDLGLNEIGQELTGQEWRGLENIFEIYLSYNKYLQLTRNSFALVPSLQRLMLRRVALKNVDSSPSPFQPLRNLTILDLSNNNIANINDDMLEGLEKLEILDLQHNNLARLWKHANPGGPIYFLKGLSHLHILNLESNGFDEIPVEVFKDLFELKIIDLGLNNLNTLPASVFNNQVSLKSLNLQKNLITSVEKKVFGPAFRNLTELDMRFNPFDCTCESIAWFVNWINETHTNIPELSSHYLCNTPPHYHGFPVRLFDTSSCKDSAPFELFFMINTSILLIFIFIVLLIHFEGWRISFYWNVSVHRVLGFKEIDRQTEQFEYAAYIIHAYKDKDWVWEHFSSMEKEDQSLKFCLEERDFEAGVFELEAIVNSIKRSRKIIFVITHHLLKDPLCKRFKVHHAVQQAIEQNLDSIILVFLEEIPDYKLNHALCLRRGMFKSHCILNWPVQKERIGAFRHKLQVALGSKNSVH

Toll-like receptor 4, sequence (O00206 whole entry): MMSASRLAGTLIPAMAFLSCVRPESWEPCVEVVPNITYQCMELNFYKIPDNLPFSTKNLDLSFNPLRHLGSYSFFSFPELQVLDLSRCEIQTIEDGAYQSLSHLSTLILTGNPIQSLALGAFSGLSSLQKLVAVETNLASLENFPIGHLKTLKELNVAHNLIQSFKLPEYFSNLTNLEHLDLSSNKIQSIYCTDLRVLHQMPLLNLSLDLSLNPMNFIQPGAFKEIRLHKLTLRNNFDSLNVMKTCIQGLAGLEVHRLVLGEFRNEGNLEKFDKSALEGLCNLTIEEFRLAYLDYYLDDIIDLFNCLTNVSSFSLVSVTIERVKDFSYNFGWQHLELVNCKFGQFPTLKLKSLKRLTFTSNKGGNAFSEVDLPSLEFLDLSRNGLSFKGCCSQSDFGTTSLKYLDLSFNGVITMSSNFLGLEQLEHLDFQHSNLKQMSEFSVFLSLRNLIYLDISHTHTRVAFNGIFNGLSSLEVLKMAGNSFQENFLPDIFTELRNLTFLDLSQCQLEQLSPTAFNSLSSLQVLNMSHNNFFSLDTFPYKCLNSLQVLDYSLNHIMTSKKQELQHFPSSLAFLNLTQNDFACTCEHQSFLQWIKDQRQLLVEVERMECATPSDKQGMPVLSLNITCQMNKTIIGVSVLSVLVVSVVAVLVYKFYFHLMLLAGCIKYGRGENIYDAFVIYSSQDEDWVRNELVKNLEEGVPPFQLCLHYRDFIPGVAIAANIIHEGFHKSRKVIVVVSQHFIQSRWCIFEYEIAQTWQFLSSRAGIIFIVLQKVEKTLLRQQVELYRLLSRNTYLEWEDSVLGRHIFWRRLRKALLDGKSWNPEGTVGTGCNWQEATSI

Row | Compound | IC50 (Toll-like receptor 9) [nM] | IC50 (Toll-like receptor 7) [nM] | further results
1 | CNCCN1CCC(c2ccc3[nH]c(-c4ccc(OC)cc4OC)c(C)c3c2)CC1 | 2330 | > 10000 | –
2 | CNCCN1CCC(c2ccc3[nH]c(-c4ccc(C(N)=O)cc4)c(C)c3c2)CC1 | 270 | 16600 | –
3 | COc1ccc(-c2[nH]c3ccc(C4CCN(C(C)=O)CC4)cc3c2C)cc1OC | > 50000 | 1310 | –
4 | CNCCN1CCC(c2ccc3[nH]c(-c4ccccc4OC)c(F)c3c2)CC1 | 23300 | 610 | inhibition [1]: < 5%
5 | CNCCN1CCC(c2ccc3[nH]c(-c4ccccc4)c(C)c3c2)CC1 | 1800 | > 10000 | –
6 | CNCCN1CCC(c2ccc3[nH]c(-c4cccc(C)c4)c(C)c3c2)CC1 | 2620 | > 10000 | –
7 | CNCCN1CCC(c2ccc3[nH]c(-c4cccc(OC)c4OC)c(C)c3c2)CC1 | 2200 | > 10000 | –
8 | CNCCN1CCC(c2ccc3[nH]c(-c4ccc(OC)c(OC)c4)c(CC(F)(F)F)c3c2)CC1 | 750 | 70 | –
9 | COc1ccc(-c2[nH]c3ccc(C4CCNCC4)cc3c2C)cc1OC | 4850 | – | –
10 | CNCCN1CCC(c2ccc3[nH]c(-c4cccc(OC)c4)c(C)c3c2)CC1 | 1870 | 6170 | –
11 | CNCCN1CCC(c2ccc3[nH]c(-c4ccc(OC)c(OC)c4)c(C#N)c3c2)CC1 | – | > 10000 | –
12 | COc1ccc(-c2[nH]c3ccc(C4CCN(C5CCN(C)CC5)CC4)cc3c2C)cc1OC | – | 730 | –
13 | CCc1c(-c2ccc(OC)c(OC)c2)[nH]c2ccc(C3CCN(CCNC)CC3)cc12 | – | 130 | –
14 | CNCCN1CCC(c2ccc3[nH]c(-c4ccc5c(c4)OCO5)c(C)c3c2)CC1 | 1200 | 650 | –
15 | COc1ccc(-c2[nH]c3ccc(C4CCN(CC5CCCCN5C)CC4)cc3c2C)cc1OC (stereo not given) | 740 | 850 | –
16 | CNCCN1CCC(c2ccc3[nH]c(-c4ccccc4C#N)c(C)c3c2)CC1 | 600 | > 10000 | –

Row | Compound | IC50 (Toll-like receptor 9) [nM] | IC50 (Toll-like receptor 7) [nM] | further results
17 | CNCCN1CCC(c2ccc3[nH]c(-c4ccc(OC)cc4)c(C)c3c2)CC1 | 500 | 5460 | –
18 | COc1ccc(-c2[nH]c3ccc(C4CCN(Cc5nccn5C)CC4)cc3c2C)cc1OC | 850 | – | –
19 | COc1ccc(-c2[nH]c3ccc(C4CCN(C5CNC5)CC4)cc3c2C)cc1OC | 2340 | – | –
20 | CNCCCN1CCC(c2ccc3[nH]c(-c4ccc(OC)c(OC)c4)c(C)c3c2)CC1 | 550 | 790 | –
21 | CCOc1cc(-c2[nH]c3ccc(C4CCN(CCNC)CC4)cc3c2C)ccc1OC(C)C | 1660 | – | –
22 | CNCCN1CCC(c2ccc3[nH]c(-c4ccc(OC)c(OC)c4)c(C)c3c2)CC1 | 430 | 250 | IC50 (Toll-like receptor 4): 15000 nM; IC50 (Toll-like receptor 3): 2160 nM
23 | COc1ccc(-c2[nH]c3ccc(C4CCN(Cc5cnc(C)[nH]5)CC4)cc3c2C)cc1OC | – | 3490 | –
24 | CNCCN1CCC(c2ccc3[nH]c(-c4cccc(C#N)c4)c(C)c3c2)CC1 | 460 | > 10000 | –
25 | CNCCN1CCC(c2ccc3[nH]c(-c4ccccc4OC)c(C)c3c2)CC1 | 1100 | > 10000 | –
26 | CNCCN1CCC(c2ccc3[nH]c(-c4ccccc4Cl)c(F)c3c2)CC1 | 21700 | – | –
27 | CNCCN1CCC(c2ccc3[nH]c(-c4ccc(OC)c(OC)c4)c(Cl)c3c2)CC1 | 430 | – | –
28 | CNCCN1CCC(c2ccc3[nH]c(-c4ccc(C)cc4)c(C)c3c2)CC1 | 5390 | > 10000 | –
29 | COc1ccc(-c2[nH]c3ccc(C4CCN(Cc5cncn5C)CC4)cc3c2C)cc1OC | 2710 | 920 | –
30 | CNCCN1CCC(c2ccc3[nH]c(-c4ccccc4C)c(C)c3c2)CC1 | 2140 | > 10000 | –
31 | COc1ccc(-c2[nH]c3ccc(C4CCN(Cc5ccncc5)CC4)cc3c2C)cc1OC | 3360 | – | –
32 | CNCCN1CCC(c2ccc3[nH]c(-c4ccc(C#N)cc4)c(C)c3c2)CC1 | 520 | – | –
